Laboratory results: patent publication US20240067625A1, “SMALL-MOLECULE MODULATORS OF THE ORPHAN NUCLEAR RECEPTOR TLX” (priority 2020, published 2024)

Target: TLX LBD (Homo sapiens (Human), UniProt Q9Y466)
Experiment: ALPHA screen assay for TLX LBD and coactivator peptide recruitment
Format: biochemical
Settings: Table 3; for Average ALPHA signal at 200 μM (std. dev.): mean (std. dev.)
Procedure: Assays were performed according to the manufacturer's protocol (PerkinElmer, USA), with the following modifications: Ligands were tested for TLX-coactivator binding in 50 mM phosphate buffer, 150 mM NaCl, pH 7, 1 mM DTT and 100 μM CHAPS. Ligands were dissolved and diluted in DMSO as stocks and were prepared in assay buffer from the original stock in the 100% DMSO and added to the assay plate. Biotinylated SRC peptide and polyhistidine tagged TLX LBD were diluted in assay buffer, subsequently added to respective ALPHA beads, under low light. The plates were spun down, mixed with a shaker and incubated for 120 minutes and read on a TECAN Plate reader using the manufacturer's protocol.

Sequence of TLX LBD (Q9Y466 155-383): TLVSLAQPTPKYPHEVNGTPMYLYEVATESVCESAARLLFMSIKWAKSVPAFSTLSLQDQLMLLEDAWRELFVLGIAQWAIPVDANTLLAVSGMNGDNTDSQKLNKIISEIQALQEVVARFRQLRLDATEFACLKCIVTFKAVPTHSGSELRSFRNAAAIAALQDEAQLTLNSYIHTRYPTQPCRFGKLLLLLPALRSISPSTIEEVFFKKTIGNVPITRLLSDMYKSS

Row | SMILES | Average ALPHA signal at 200 μM (std. dev.) | EC50
1 | Cc1ccccc1CN1CCN(C(=O)c2cccnc2NCCC(C)C)[C@H](C)C1 [Compound 43] | 3.49 (0.17) | 
2 | Cc1ccccc1CN1CCN(C(=O)c2cccnc2NCCC(C)C)[C@@H](C)C1 [Compound 31] | 4.52 (0.06) | 0.0138 nM
3 | COC(=O)C[C@@H]1CN(C(=O)c2cccnc2NCCC(C)C)C[C@@H](C)N1Cc1ccccc1 [Compound 64] | 2.26 (0.07) | 0.00858 nM
4 | CC(C)CCNc1ncccc1C(=O)N1CCN(Cc2ccc3cnccc3c2)C[C@@H]1C [Compound 40] | 2.48 (0.02) | 0.0529 nM
5 | COC(=O)C[C@H]1CN(C(=O)c2cccnc2NCCC(C)C)C[C@H](C)N1Cc1ccccc1 [Compound 62] | 2.54 (0.08) | 0.012 nM
6 | COc1cccc(CN2CCN(C(=O)c3cccnc3NCCC(C)C)[C@@H](C)C2)c1 [Compound 39] | 3.19 (0.17) | 0.0276 nM
7 | CC(C)CCNc1ncccc1C(=O)N1C[C@H](C)N(Cc2ccccc2)C[C@H]1CC(=O)O [Compound 82] | 1.11 (0.02) | 
8 | CC(C)CNc1ncccc1C(=O)N1CCN(Cc2ccccc2)[C@@H](C)C1 [Compound 89] | 1.98 (0.05) | 
9 | CC(C)CCNc1ncccc1C(=O)N1C[C@@H](CC(=O)O)N(Cc2ccccc2)[C@@H](C)C1 [Compound 65] | 0.99 (0.04) | 
10 | COC(=O)C[C@@H]1[C@@H](C)N(Cc2ccccc2)CCN1C(=O)c1cccnc1NCCC(C)C [Compound 72] | 2.51 (0.10) | 
11 | CCCCN1CCN(C(=O)c2cccnc2NCCC(C)C)[C@@H](C)C1 [Compound 37] | 2.30 (0.02) | 0.0335 nM
12 | COC(=O)C[C@H]1CN(Cc2ccccc2)[C@H](C)CN1C(=O)c1cccnc1NCCC(C)C [Compound 76] | 3.09 (0.18) | 0.0126 nM
13 | CC(C)CCNc1ncccc1C(=O)N1CCN(CCCc2ccccc2)C[C@H]1C [Compound 48] | 3.75 (0.31) | 
14 | COC(=O)C[C@H]1CN(Cc2ccccc2)[C@@H](C)CN1C(=O)c1cccnc1NCCC(C)C [Compound 73] | 2.69 (0.07) | 
15 | CC(C)CCNc1ncccc1C(=O)N1CCN(Cc2c[nH]c3ccccc23)C[C@@H]1C [Compound 42] | 0.96 (0.05) | 
16 | COC(=O)C[C@H]1[C@@H](C)N(Cc2ccccc2)CCN1C(=O)c1cccnc1NCCC(C)C [Compound 71] | 2.47 (0.03) | 
17 | Cc1cccc(CN2CCN(C(=O)c3cccnc3NCCC(C)C)[C@H](C)C2)c1 [Compound 44] | 3.28 (0.09) | 0.0124 nM
18 | COC(=O)C[C@@H]1[C@H](C)N(Cc2ccccc2)CCN1C(=O)c1cccnc1NCCC(C)C [Compound 69] | 2.53 (0.08) | 0.0081 nM
19 | CC(C)CCNc1ncccc1C(=O)N1CCN(Cc2ccc3cnccc3c2)C[C@H]1C [Compound 52] | 2.03 (0.12) | 0.0261 nM
20 | CC(C)CCNc1ncccc1C(=O)N1CCN(Cc2ccccc2)[C@@H](C)[C@@H]1CC(=O)O [Compound 78] | 1.16 (0.03) | 
21 | CC(C)CCNc1ncccc1C(=O)N1CCN(Cc2ccccc2)[C@H](C)[C@H]1CC(=O)O [Compound 80] | 1.11 (0.07) | 
22 | CC(C)CCNc1ncccc1C(=O)N1CCN(CCC2CCN(C(=O)OC(C)(C)C)CC2)C[C@H]1C [Compound 53] | 2.84 (0.05) | 0.00904 nM
23 | CC(C)CCNc1ncccc1C(=O)N1CCN(Cc2cccc(C(=O)O)c2)CC1 [Compound 59] | 1.25 (0.09) | 
24 | CCCCCCN1CCN(C(=O)c2cccnc2NCCC(C)C)[C@@H](C)C1 [Compound 36] | 8.78 (0.30) | 0.0126 nM
25 | CNc1ncccc1C(=O)N1CCN(Cc2ccccc2)[C@@H](C)C1 [Compound 92] | 1.85 (0.10) | 
26 | CC(C)CCNc1ncccc1C(=O)N1CCN(Cc2c[nH]c3ccccc23)C[C@H]1C [Compound 54] | 1.17 (0.06) | 
27 | COC(=O)c1ccc(CN2CCN(C(=O)c3cccnc3NCCC(C)C)CC2)cc1 [Compound 57] | 2.54 (0.04) | 0.0745 nM
